In this test the test system is H3677 melanoma cell line. Nature of the test: cells. Format: cell-based.
[1] abbreviates: read-out: IC50 (μM) with L49-βL.

Where two headings read alike, the source gives them in different places.

The term IC50 denotes the point on the concentration scale where inhibition reaches its midpoint. As for C-Mel Cyclobutyl Ester, the IC50 turned out to be 0.8 µM (read-out: IC50 (μM) with βL) and 10 µM (read-out: IC50 (μM) without βL). For the setting “Homo sapiens, H3677”, `N[C@@H](Cc1ccc(N(CCCl)CCCl)cc1)C(=O)O` [melphalan, 4[bis(2 chloroethyl)amino]-L-phynelalanine, reference compound] registered an IC50 of 2.8 µM.

As for “Melphalan (4-cis-t-butyl) cyclohexyl ester [melphalan cis-4-t-butylcyclohexyl ester]”, the IC50 (read-out: IC50) amounted to 13 µM.

Take Melphalan Methyl Ester: under “read-out: IC50”, the IC50 is 0.054 µM. Turning to Glutaryl C-Mel-D-Phe-NH2, the IC50 stood at 2.1 µM (read-out: IC50 (μM) with βL) and 30 µM (read-out: IC50 (μM) without βL).

On to C-Mel t-Butyl Ester, for which the IC50 was 2.1 µM (read-out: IC50 (μM) with βL) and 32.3 µM (read-out: IC50 (μM) without βL). For Melphalan t-Butyl Ester, the IC50 (read-out: IC50) worked out at 3.34 µM. On to “Melphalan (2-trifluoromethyl)phenethyl ester”, for which, where the note is “read-out: IC50”, the IC50 stood at 3 µM. On the same count and under the same terms, for Melphalan Cyclohexyl Ester the value was 0.074 µM; for melphalan amide, 0.64 µM. For the compound Glutaryl C-Mel, the IC50 was 2.4 µM under setting [1], 1.4 µM (read-out: IC50 (μM) with βL) and 26.3 µM (read-out: IC50 (μM) without βL). Regarding Melphalan Phenethyl Ester, the IC50 (read-out: IC50) was found to be 0.17 µM. melphalan anilide: where the note is “read-out: IC50”, the half-maximal inhibitory concentration (IC50) is 1.2 µM. On the same count and under the same terms, for Mel-cyclohexyl amide the value was 1.57 µM; for Mel-L-Phe cyclohexyl amide, 0.015 µM. Still for that read-out and setting: with Mel-propargylalanine-NH2 the figure was 0.31 µM. With Glutaryl C-Mel Cyclohexyl Ester, the IC50 stood at 0.14 µM under setting [1], 0.087 µM (read-out: IC50 (μM) with βL) and 1.86 µM (read-out: IC50 (μM) without βL). Regarding Glutaryl C-Mel-L-Phe-NH2, the IC50 reads like this: (read-out: IC50 (μM) with βL) 0.05 µM; (read-out: IC50 (μM) without βL) 3.6 µM. Turning to Mel-L-Met amide, where the note is “read-out: IC50”, the IC50 amounted to 0.4 µM. Consider “Melphalan (4-trans-t-butyl) cyclohexyl ester”, for which the IC50 (read-out: IC50) came out at 3.6 µM. Still for that read-out and setting: for Mel-Gly-nitrophenyl amide the value was 1.01 µM. On the same count and under the same terms, for Melphalan Cyclooctyl Ester the value was 5 µM. For C-Mel Cyclohexyl Ester, the IC50 by setting is: under setting [1], 0.23 µM; (read-out: IC50 (μM) with βL) 0.083 µM; (read-out: IC50 (μM) without βL) 1.6 µM. As to “Mel-L-Glu(OMe)2 [Mel-L-Glu bis methyl ester]”, the IC50 (read-out: IC50) came out at 1.89 µM. Consider “Melphalan (4-n-propyl)phenethyl ester [melphalan (4-butyl)phenethyl ester]”, for which the IC50 (read-out: IC50) stood at 4.6 µM.

Mel-L-homoPhe-NH2: the IC50 (read-out: IC50) turned out to be 0.09 µM. Still for that read-out and setting: for Melphalan Cyclobutyl Ester the value was 0.2 µM. Regarding glutaryl C-Mel t-butyl ester, the concentration for half-maximal inhibition (IC50) runs as follows: (read-out: IC50 (μM) with βL) 2.3 µM; (read-out: IC50 (μM) without βL) 25 µM.

Take C-Mel Methyl Ester: the IC50 (read-out: IC50 (μM) with βL) was determined as 0.0018 µM and the IC50 (read-out: IC50 (μM) without βL) turned out to be 0.65 µM. On to Mel-phenethyl amide, for which the IC50 (read-out: IC50) came out at 0.97 µM. Same read-out and setting: with “Mel-D-Glu(OMe)2 [Mel-D-Glu bis methyl ester]” the figure was 3.95 µM.

These data come from US20050214310A1 (priority 2004, published 2005).
